Laboratory results taken from US20220074941A1, “HSP90 COMBINATION THERAPY” (Sloan-Kettering Institute for Cancer Research, priority 2011, published 2022).
Entries after “also recorded” stand apart in the source; their conditions may differ.

Columns and labels:
[1] = test system: Hsp90 from SKBr3 cellular extracts; assay: Fluorescence polarization (FP) competition assay with GM-cy3B; format: binding; conditions: FP competition with GM-cy3B, SKBr3 lysate, 4° C. for 24 h; read-out: IC50 (nM), binding affinity for Hsp90 from SKBr3 cellular extracts
Text: The attachment of small molecules to a solid support is a very useful method to probe their target and the target's interacting partners. […] Perhaps the most crucial aspects in designing such chemical probes are determining the appropriate site for attachment of the small molecule ligand, and designing an appropriate linker between the molecule and the solid support. Our strategy to design Hsp90 chemical probes entails several steps. First, in order to validate the optimal linker length and its site of attachment to the Hsp90 ligand, the linker-modified ligand was docked onto an appropriate X-ray crystal structure of Hsp90α. Second, the linker-modified ligand was evaluated in a fluorescent polarization (FP) assay that measures competitive binding to Hsp90 derived from a cancer cell extract. […] These steps are important to ensure that the solid-support immobilized molecules maintain a strong affinity for Hsp90. Finally, the linker-modified small molecule was attached to the solid support, and its interaction with Hsp90 was validated by incubation with an Hsp90-containing cell extract.
Briefly, FP measurements were performed on an Analyst GT instrument (Molecular Devices, Sunnyvale, Calif.). […] Drugs were added in triplicate wells. […] The assay plate was incubated on a shaker at 4° C. for 24 h and the FP values in mP were measured. The fraction of tracer bound to Hsp90 was correlated to the mP value and plotted against values of competitor concentrations. […] All experimental data were analyzed using SOFTmax Pro 4.3.1 and plotted using Prism 4.0 (Graphpad Software Inc., San Diego, Calif.).

[2] = molecular target: T1, cell surface Hsp90 in MV4-11 leukemia cells (Homo sapiens, UniProt P07900); assay: Flow cytometry detection of cell surface Hsp90 with PU-H71-biotin; format: cell-based; conditions: MV4-11 cells, 2 h at 37° C., SA-PE staining
T1 construct: specifically detect Hsp90 when expressed on the cell surface; endogenous in cells; host or cells: MV4-11 live cells
Text: FIGS. 29a and 29b. A) Hsp90-containing protein complexes from the brains of JNPL3 mice, an Alzheimer's disease transgenic mouse model, isolated through chemical precipitation with beads containing a streptavidin-immobilized PU-H71-biotin construct or control streptavidin-immobilized D-biotin. Aberrant tau species are indicated by arrow. c1, c2 and s1, s2, cortical and subcortical brain homogenates, respectively, extracted from 6-month-old female JNPL3 mice (Right). Western blot analysis of brain lysate protein content (Left). B) Cell surface Hsp90 in MV4-11 leukemia cells as detected by PU-H71-biotin. The data are consistent with those obtained from multiple repeat experiments (n 2′: 2).
Cells were then analyzed using the BD-LSRII flow cytometer. Mean fluorescence intensity (MFI) was used to calculate the binding of PU-H71-biotin to cells and values were normalized to the MFI of untreated cells stained with SA-PE.

[3] = test system: OCI-LYI, OCI-LY7, Farage and SUDHL6 DLBCL cells; assay: Combination of PU-H71 with SYK inhibitor in DLBCL cells; format: cell-based
[4] = test system: DLBCL cell lines; conditions: literature; cited from earlier work
[5] = test system: Mia-PaCa-2 cells; assay: Alamar Blue cell growth assay; format: cell-based, human; conditions: Mia-PaCa-2, 72 h
Description: (§1) FIGS. 7a-7g. PU-H71 identified proteins and networks are those important for the malignant phenotype. (a) K562 cells were treated for 72 h with the indicated inhibitors and cell growth analyzed by the Alamar Blue assay. Data are presented as means±SD (n=3). (b) Sequential chemical-precipitations, as indicated, were conducted in K562 extracts with the PU-beads at the indicated frequency. Proteins in the pull-downs and in the remaining supernatant were analyzed by WB. (c) The effect of CARMI knock-down on cell viability using Tryptan blue (left) or Acridine orange/Ethidium bromide (right) stainings was evaluated in K562 cells. (d) The expression of select potential Hsp90-interacting proteins was analyzed by WB in K562 leukemia and Mia-PaCa-2 pancreatic cancer cells. […] Proteins in the pull-downs were analyzed by WB. (g) The effect of select inhibitors on Mia-PaCa-2 cell growth was analyzed as in panel (a).
(§2) Viability assessment in K562 cells untransfected or transfected with CARMI shRNA or scramble was performed using Trypan Blue. […] Apoptosis analysis was assessed using fluorescence microscopy by mixing 2 μL of acridine orange (100 μg/mL), 2 μL of ethidium bromide (100 μg/mL), and 20 μL of the cell suspension. A minimum of 200 cells was counted in at least five random fields. […] Results were analyzed using the Softmax Pro and the GraphPad Prism softwares. […]

[6] = test system: K562 cells; assay: Western blot of proteins in treated K562 cells; format: cell-based; conditions: PU-H71 5 μM or Gleevec 0.5 μM, time course
Description: FIGS. 5a-5f. […] (a) Hsp90 complexes in K562 extracts were isolated by precipitation with H9010, a non-specific IgG, or by PU-H71- or Control-beads. Control beads contain ethanolamine, an Hsp90-inert molecule. Proteins in pull-downs were analyzed by Western blot. (b,c) Single or sequential immuno- and chemical-precipitations, as indicated, were conducted in K562 extracts with H9010 and PU-beads at the indicated frequency and in the shown sequence. Proteins in the pull-downs and in the remaining supernatant were analyzed by WB. NS=non-specific. […] (e) Expression of proteins in Hsp70-knocked-down cells was analyzed by Western blot (left) and changes in protein levels presented in relative luminescence units (RLU) (right). Control=scramble siRNA. […] Proteins in the pull-downs and in the remaining supernatant were analyzed by Western blot. […]
FIGS. 8a-8h. […] Proteins in the pull-downs and in the remaining supernatant were analyzed by WB. […] Proteins were analyzed by WB (upper), quantified by densitometry and graphed against treatment time (lower). […] (f) Quantitative chromatin immunoprecipitation assays (QChIP) performed with STAT5 or Hsp90 antibodies vs. IgG control for two known STAT5 target genes (CCND2 and […]).
Protein concentrations were determined using BCA kit (Pierce) according to the manufacturer's instructions. […]

[7] = test system: K562 cells; assay: Alamar Blue cell growth assay; format: cell-based; conditions: K562, 72 h
Description: as §1, §2

[8] = test system: K562 CML cells; assay: Drug combination with PU-H71 in CML cells; format: cell-based
Text: Since single agent therapy is not likely to be curative in cancer, it is necessary to design rational combinatorial therapy approaches. Proteomic identification of oncogenic Hsp90-scaffolded signaling networks may identify additional oncoproteins that could be further targeted using specific small molecule inhibitors.

[9] = test system: DLBCL patients; conditions: Phase II; cited from earlier work
[10] = test system: patients with advanced pancreatic cancer; conditions: cited from earlier work
[11] = test system: MDA-MB-468 breast cancer cells; assay: Clonogenic survival, combination with PU-H71; format: cell-based; conditions: MDA-MB-468, combination with PU-H71
Text: (§3) Specifically, among the Hsp90-regulated pathways identified in the K562 CML cells, MDA-MB-468 breast cancer cells and the Mia-PaCa-2 pancreatic cancer cells are several involved in DNA damage, replication and repair response and/or homologous recombination (Tables 3, 5a-5f). Hsp90 inhibition may synergize or be additive with agents that act on DNA damage and/or homologous recombination (i.e. potentiate DNA damage sustained post treatment with IR/chemotherapy or other agents, such as PARP inhibitors that act on the proteins that are important for the repair of double-strand DNA breaks by the error-free homologous recombinational repair pathway).

[12] = test system: HCC1937 breast cancer cells; assay: Clonogenic survival, combination with PU-H71; format: cell-based
Text: as §3

## Nc1ncnc2c1nc(Sc1cc3c(cc1I)OCO3)n2CCCNCCOCCOCCOCCNC(=O)CCCC[C@@H]1SC[C@@H]2NC(=O)N[C@@H]21 [Compound 7]
[1]
  IC50: 67.1 nM
[2]
  detection of Hsp90 on the cell surface: can detect Hsp90 expression on the surface of leukemia cells

## COc1cc(Nc2ncc(F)c(Nc3ccc4c(n3)NC(=O)C(C)(C)O4)n2)cc(OC)c1OC [Compound R406]
[3]
  efficacy of combination with PU-H71 versus each inhibitor alone: synergizes; also recorded: more efficacious
[4]
  effect on DLBCL cell lines: blocks proliferation and induces apoptosis

## Cc1ccc(NC(=O)c2ccc(CN3CCN(C)CC3)cc2)cc1Nc1nccc(-c2cccnc2)n1 [Gleevec]
[5]
  effect on cell growth: toxic only to K562 cells
[6]
  STAT5 phosphorylation (p-STAT5 levels): rapidly decreased
[7]
  effect on cell growth: toxic only to K562 cells

## COc1ccc(S(=O)(=O)N(CCO)c2ccccc2CN(C)C/C=C/c2ccc(Cl)cc2)cc1 [KN93]
[8]
  drug interaction with Hsp90 inhibitor PU-H71: synergize

## CC(C)n1nc(-c2cc3cc(O)ccc3[nH]2)c2c(N)ncnc21 [PP242]
[5]
  effect on cell growth: toxic to both cells
[7]
  effect on cell growth: toxic to both cells

## CO[C@H]1C[C@@H]2CC[C@@H](C)[C@@](O)(O2)C(=O)C(=O)N2CCCC[C@H]2C(=O)O[C@H]([C@H](C)C[C@@H]2CC[C@@H](OCCO)[C@H](OC)C2)CC(=O)[C@H](C)/C=C(\C)[C@@H](O)[C@@H](OC)C(=O)[C@H](C)C[C@H](C)/C=C/C=C/C=C/1C [everolimus]
[9]
  ORR: 35%

## Nc1ccn([C@@H]2O[C@H](CO)[C@@H](O)C2(F)F)c(=O)n1 [gemcitabine]
[10]
  median survival: approximately 6 months

## O=C(c1cc(Cc2n[nH]c(=O)c3ccccc23)ccc1F)N1CCN(C(=O)C2CC2)CC1 [olaparib]
[11]
  drug interaction with PU-H71 in inhibiting clonogenic survival: synergizes
[12]
  drug interaction with PU-H71 in inhibiting clonogenic survival: synergizes
